Patent US11266645B2, “Methods for treating lymphoma” (Alexion Pharmaceuticals, Inc., priority 2018, dated 2022)
Like-named read-outs stand apart in the source and are kept apart here.

Tests used:
[1] = system: patients with relapsed or refractory PTCL; conditions: cited from earlier work; for ORR / CR / DOR: relapsed/refractory PTCL; for ORR: brentuximab only anaplastic large cell lymphoma
Primary CLL cells = Primary CLL cells with IL-4/CD40L, immunoblotting and annexin V/PI viability; type: cell-based, human; conditions: for IL-4/CD40L induced Mcl-1 and Bcl-XL expression: 1 μM
Protocol: Combination studies were performed with 10 or 100 nM venetoclax or 300 and 1000 nM S63846. Cell viability was assessed by annexin V/PI using flow cytometry and changes in protein expression by immunoblotting.

Row | Compound | Grade 3/4 AEs: Thrombocytopenia ([1]; Table 1) | Toxicities ≥ Grade 3: Anemia ([1]; r/r PTCL, Table 2) | Toxicities ≥ Grade 3: Asthenia/Fatigue ([1]; r/r PTCL, Table 2) | Toxicities ≥ Grade 3: Neutropenia ([1]; r/r PTCL, Table 2) | Toxicities ≥ Grade 3: Pyrexia ([1]; r/r PTCL, Table 2) | Toxicities ≥ Grade 3: Thrombocytopenia ([1]; r/r PTCL, Table 2) | ORR [1] | CR [1] | DOR [1] | Grade 3/4 AEs: Fatigue ([1]; Table 1) | IL-4/CD40L induced Mcl-1 and Bcl-XL expression (Primary CLL cells) | also measured
1 | Brentuximab | Thrombocytopenia: 10% | 2% | 4% | 21% | 2% | 10% | ORR: 86% | (57% CR) | DOR: 12.6 months | – | – | Grade 3/4 AEs: Neutropenia ([1]; Table 1): Neutropenia: 21%; Grade 3/4 AEs: Peripheral sensory neuropathy ([1]; Table 1): Peripheral sensory neuropathy: 10%; Toxicities ≥ Grade 3: Diarrhea/Colitis ([1]; r/r PTCL, Table 2): 3%
2 | O=C(/C=C/c1cccc(S(=O)(=O)Nc2ccccc2)c1)NO [Belinostat] | Thrombocytopenia: 7% | 11% | 5% | – | 2% | 7% | ORR: 26% | (11% CR) | DOR: 8.4 months | Fatigue: 5% | – | Grade 3/4 AEs: Anemia ([1]; Table 1): Anemia: 11%; Toxicities ≥ Grade 3: Infection ([1]; r/r PTCL, Table 2): 8.5%^; ORR ([1]; listed as belinostat): approximately 25%
3 | CC[C@H](Nc1ncnc2[nH]cnc12)c1nc2cccc(F)c2c(=O)n1-c1ccccc1 [idelalisib, reference compound] | – | – | – | – | – | – | – | – | – | – | significantly reduced | –
4 | Cc1c(-c2c(-c3ccc(F)o3)sc3ncnc(O[C@H](Cc4ccccc4OCc4ccnn4CC(F)(F)F)C(=O)O)c23)ccc(OCCN2CCN(C)CC2)c1Cl [S63845, reference compound] | – | – | – | – | – | – | – | – | – | – | – | synergy with BCR kinase inhibitors including cerdulatinib, CLL cell death (Primary CLL cells; CLL cells): synergized
5 | c1cn2cc(-c3ccc4cn[nH]c4c3)nc(Nc3ccc(N4CCOCC4)cc3)c2n1 [entospletinib, reference compound] | – | – | – | – | – | – | – | – | – | – | significantly reduced | –
6 | NC(=O)c1cnc(N[C@@H]2CCCC[C@@H]2N)nc1Nc1cccc(-n2nccn2)c1 [PRT062607, reference compound] | – | – | – | – | – | – | – | – | – | – | significantly reduced | –
7 | C#CCC(Cc1cnc2nc(N)nc(N)c2n1)c1ccc(C(=O)N[C@@H](CCC(=O)O)C(=O)O)cc1 (some centres unmarked) [Pralatrexate] | Thrombocytopenia: 33% | 17% | 8% | 20% | 2% | 33% | ORR: 27% | (6% CR) | DOR: 9.4 months | Fatigue: 7% | – | Grade 3/4 AEs: Anemia ([1]; Table 1): Anemia: 17%; Grade 3/4 AEs: Mucositis ([1]; Table 1): Mucositis: 21%; Grade 3/4 AEs: Neutropenia ([1]; Table 1): Neutropenia: 20%; Toxicities ≥ Grade 3: Leukopenia ([1]; r/r PTCL, Table 2): 7%; Toxicities ≥ Grade 3: Mucositis ([1]; r/r PTCL, Table 2): 23%; Toxicities ≥ Grade 3: Sepsis ([1]; r/r PTCL, Table 2): 5%; ORR ([1]; listed as pralatrexate): approximately 25%
8 | C/C=C1\NC(=O)[C@H]2CSSCC/C=C/[C@H](CC(=O)N[C@H](C(C)C)C(=O)N2)OC(=O)[C@H](C(C)C)NC1=O [Romidepsin] | Thrombocytopenia: 21% | 11-28% | 8-19% | 20-47% | 6-17% | 24-36% | – | – | – | Fatigue: 13% | – | Grade 3/4 AEs: Nausea ([1]; Table 1): Nausea: 4%; Toxicities ≥ Grade 3: Infection ([1]; r/r PTCL, Table 2): 19%; Toxicities ≥ Grade 3: Leukopenia ([1]; r/r PTCL, Table 2): 6-45%; Toxicities ≥ Grade 3: Sepsis ([1]; r/r PTCL, Table 2): 5%
